Experimental findings from the SangsterLogP compilation are described below.

A word on the logP: it is the decadic logarithm of the partition coefficient of the neutral form, usually between octanol and water. A higher logP goes with a more lipophilic compound. `COc1ccc(NC(=O)OCCN(C)C)cc1` had a logP of 0.97.

In the case of `CCCOc1ccccc1NC(=O)OCCN(C)C`, the logP came to 1.24.

On to `CCCCCCCCCOc1ccccc1NC(=O)OCCN(C)C`, for which the logP worked out at 3.35.

Consider `CCCCCCCCOc1cccc(NC(=O)OCCN(C)C)c1`, for which the logP was determined as 2.87.

`CCCCOc1cccc(NC(=O)OCCN(C)C)c1` gave a logP of 1.35.

As to `CCOc1ccc(NC(=O)OCCN(C)C)cc1`, the logP turned out to be 1.14.

In the case of `CCCCCCCCCCOc1ccc(NC(=O)OCCN(C)C)cc1`, the logP was 4.02.

In turn, `CCCOc1ccc(NC(=O)OCCN(C)C)cc1` yielded a logP of 1.41.

Regarding `CCOc1cccc(NC(=O)OCCN(C)C)c1`, the logP is 0.8.

Regarding `CCCCCCCCCOc1cccc(NC(=O)OCCN(C)C)c1`, the logP was determined as 3.21.

`CCCCCCCCOc1ccc(NC(=O)OCCN(C)C)cc1` had a logP of 3.26.

Turning to `COc1ccccc1NC(=O)OCCN(C)C`, the logP is 1.15.

Turning to `CCCOc1cccc(NC(=O)OCCN(C)C)c1`, the logP was 1.04.

On to `CCCCCCCOc1ccc(NC(=O)OCCN(C)C)cc1`, for which the logP was 2.93.

In the case of `CCCCOc1ccc(NC(=O)OCCN(C)C)cc1`, the logP was 1.77.

Take `CCCCCCCOc1ccccc1NC(=O)OCCN(C)C`: the logP was 2.5.

Turning to `CCCCCCOc1ccc(NC(=O)OCCN(C)C)cc1`, the logP stood at 2.47.

`CCCCCCCCCCOc1ccccc1NC(=O)OCCN(C)C` gave a logP of 3.82.

For the molecule `CCCCCOc1ccccc1NC(=O)OCCN(C)C`, the logP worked out at 1.83.

Turning to `CCCCCCOc1ccccc1NC(=O)OCCN(C)C`, the logP was found to be 2.13.

`CCOc1ccccc1NC(=O)OCCN(C)C`: the logP is 1.15.

Take `CCCCCOc1ccc(NC(=O)OCCN(C)C)cc1`: the logP worked out at 2.11.

Turning to `CCCCOc1ccccc1NC(=O)OCCN(C)C`, the logP is 1.5.

The molecule `CCCCCCOc1cccc(NC(=O)OCCN(C)C)c1` returned a logP of 2.01.

The molecule `CCCCCCCCOc1ccccc1NC(=O)OCCN(C)C` yielded a logP of 2.98.

Molecule `CCCCCCCOc1cccc(NC(=O)OCCN(C)C)c1` gave a logP of 2.43.

The molecule `CCCCCOc1cccc(NC(=O)OCCN(C)C)c1` displayed a logP of 1.72.
